# In article PMC9946977, “Identification of linderalactone as a natural inhibitor of SHP2 to ameliorate CCl4-induced liver fibrosis” (Frontiers in Pharmacology, 2023):
# Molecular target: T1, SHP2 PTP domain (Homo sapiens, UniProt Q06124)
# T1 construct: Human SHP2 PTP domain (A237–I529) expression constructs; His-tag; made in house; host or cells: E. coli BL21 (DE3)
# T1 sequence (Q06124 237-529): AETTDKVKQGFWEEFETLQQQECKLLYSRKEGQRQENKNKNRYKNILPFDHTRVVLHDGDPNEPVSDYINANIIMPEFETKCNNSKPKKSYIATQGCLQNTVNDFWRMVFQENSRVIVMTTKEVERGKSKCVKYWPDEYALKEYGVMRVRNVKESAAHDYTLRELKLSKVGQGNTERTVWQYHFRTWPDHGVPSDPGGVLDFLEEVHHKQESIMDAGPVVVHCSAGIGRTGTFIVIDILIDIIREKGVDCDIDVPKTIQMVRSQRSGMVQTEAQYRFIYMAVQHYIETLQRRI
# Assay: SHP2 inhibition assay (DiFMUP) with SHP2-PTP; HTS and dose-response
# Format: biochemical
# Details: 0.5 nM SHP2-PTP, DiFMUP substrate, 30 min co-incubation at 20°C; read-out: IC50 against the SHP2 PTP domain
# Method: Human SHP2 PTP domain (A237–I529) expression constructs were engineered by cloning PTPN11 (NP_002825.3) into the pET30 plasmid with a His-tag to support further protein purification. The K366A/Q510A double mutation was introduced into the wild-type template using a site-directed mutagenesis kit (E0554S; New England Biolabs). The expression constructs were sequenced and transformed into BL21 (DE3)-competent cells. E. coli cells were grown at 37°C in an LB culture medium in the presence of […] kanamycin until the OD600 reached 1.0. The medium was then cooled to 18°C and 1 mM isopropyl ß-D-1-thiogalactopyranoside (IPTG) was added to induce protein expression overnight.
# A surrogate phosphatase substrate, 6,8-difluoro-4-methylumbelliferyl phosphate (DiFMUP, Thermo Fisher, #D22065), was used to monitor the catalytic activity of SHP2 in a prompt fluorescence assay format. Specifically, the DiFMUP phosphatase assay was performed at 20°C in a 384-well Griener CELLSTAR black polystyrene plate in the buffer condition of 60 mM HEPES (pH7.5), 75 mM NaCl, 75 mM KCl, 1 mM EDTA, 0.05% Tween-20, 5 mM dithiothreitol (DTT). The final reaction volume was 25 μL. NP compound libraries were obtained from TargetMol at a stock concentration of 10 mM, dissolved in DMSO. The purity of the active compound LIN used in this study is 96.27% as tested by HPLC analysis. The HPLC traces is shown in Supporting Information. We co-incubated 0.5 nM of SHP2-PTP enzyme with tested NPs for 30 min at 20°C, followed by the addition of DiFMUP into the reaction. After 30 min, 5 μL of bpV(phen) solution was added to quench the dephosphorylation reaction. The signals were read on a plate reader (SpectraMax iD5, Molecular Devices). The excitation and emission wavelengths were 340 and 450 nm, respectively. The inhibitor dose-response curves were evaluated using a normalised IC50 regression curve fitting with control-based normalisation. For the full-length SHP2 inhibition assay, 0.5 μM of a bisphosphorylated pIRS-1 peptide (ChinaPeptides Ltd. Shanghai) was added for partial SHP2 activation. […]
structure (smiles),measurement,value
"C=C1C2CC2[C@@]2(C)Cc3occ(C)c3C(O)C12 (stereo partly shown) [Lindenenol, lindenenol]",IC50,12.6 ± 4.2 µM
